Measurements published in ChEMBL document CHEMBL4184271, “Design, synthesis, anti-inflammatory activity and molecular docking of potential novel antipyrine and pyrazolone analogs as cyclooxygenase enzyme (COX) inhibitors” (Bioorg Med Chem Lett, 2018).

How the values were obtained:
[1] = target: T1, Prostaglandin G/H synthase 1 (Ovis aries, UniProt P05979); experiment: Inhibition of ovine COX1 using arachidonic acid as substrate preincubated for 10 mins followed by substrate addition measured after 5 mins by ELISA
T1 sequence (P05979 whole entry): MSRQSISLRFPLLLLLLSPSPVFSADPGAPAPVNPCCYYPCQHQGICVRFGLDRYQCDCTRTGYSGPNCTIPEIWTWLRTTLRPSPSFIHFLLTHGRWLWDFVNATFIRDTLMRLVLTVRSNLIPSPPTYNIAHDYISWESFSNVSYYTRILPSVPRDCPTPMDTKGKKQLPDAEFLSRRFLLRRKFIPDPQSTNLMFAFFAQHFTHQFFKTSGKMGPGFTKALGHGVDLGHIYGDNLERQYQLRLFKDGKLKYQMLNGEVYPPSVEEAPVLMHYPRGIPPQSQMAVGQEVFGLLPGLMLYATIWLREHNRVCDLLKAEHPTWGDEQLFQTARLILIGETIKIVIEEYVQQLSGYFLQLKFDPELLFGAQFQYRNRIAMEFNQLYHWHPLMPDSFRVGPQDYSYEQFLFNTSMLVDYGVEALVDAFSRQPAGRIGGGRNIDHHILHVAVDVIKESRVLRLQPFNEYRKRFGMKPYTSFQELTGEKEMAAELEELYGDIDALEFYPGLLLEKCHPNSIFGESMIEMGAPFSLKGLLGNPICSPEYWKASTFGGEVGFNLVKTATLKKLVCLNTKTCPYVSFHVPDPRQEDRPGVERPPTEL

Ovis aries = species on record: Ovis aries; experiment: Selectivity ratio of compound effect for inhibition of ovine COX2 to compound effect for inhibition of ovine COX1
Rattus norvegicus = experiment: Anti-inflammatory activity in Sprague-Dawley rat assessed as inhibition of carrageenan-induced edema in hind paw administered ip measured after 4 to 6 hrs relative to control; assay type: functional
[2] = target: T2, Prostaglandin G/H synthase 1 (Ovis aries) (UniProt P05979); experiment: Inhibition of ovine COX1 at 5 uM using arachidonic acid as substrate preincubated for 10 mins followed by substrate addition measured after 5 mins by ELISA relative to control
T2 sequence (whole entry): T1 sequence (P05979 whole entry)

IC50 [1] [µM] | Selectivity ratio (Ovis aries) | inhibition [2] [%] | SMILES | inhibition (INH) (Rattus norvegicus) [%]
22.2 | 0.67 | 25 | CC1=NN(c2ccccc2)C(=O)/C1=C\c1ccc2c(c1)OCO2 | 20.3
 |  |  | Cc1ccc(-c2cc(C(F)(F)F)nn2-c2ccc(S(N)(=O)=O)cc2)cc1 [CELECOXIB] | 89
> 5 | 0.87 | 87 | CC1=NN(c2ccccc2)C(=O)/C1=C\c1c(C)n(C)n(-c2ccccc2)c1=O | 49.1
1.23 | 0.78 | 88.5 | Cc1c(CN2CCC(CCCC3CCN(Cc4c(C)n(C)n(-c5ccccc5)c4=O)CC3)CC2)c(=O)n(-c2ccccc2)n1C | 85.4
> 5 | 1.05 | 73.4 | Cc1c(CN2CCN(CCO)CC2)c(=O)n(-c2ccccc2)n1C | 48.2
2.52 | 0.82 | 84.2 | CC1=NN(c2ccccc2)C(=O)C1C(Nc1c(C)n(C)n(-c2ccccc2)c1=O)c1ccc2c(c1)OCO2 (stereo not given) | 48.3
1.16 | 0.87 | 87.4 | CC1=NN(c2ccccc2)C(=O)C1C(c1c(C)c(=O)n(-c2ccccc2)n1C)N1CCN(C(c2c(C)c(=O)n(-c3ccccc3)n2C)C2C(=O)N(c3ccccc3)N=C2C)CC1 (stereo not given) | 49.5
> 5 | 0.79 | 69.1 | Cc1nn(-c2ccccc2)c(O)c1C(c1c(-c2ccccc2)[nH]c2ccccc12)c1c(C)c(=O)n(-c2ccccc2)n1C (stereo not given) | 35.9
1.33 | 0.95 | 78 | CC1=NN(c2ccccc2)C(=O)C1C(c1c(C)n(C)n(-c2ccccc2)c1=O)N1CCCCC1 (stereo not given) | 40.5
> 5 | 1.2 | 42.9 | CC1=NN(c2ccccc2)C(=O)C1C(c1ccc2c(c1)OCO2)N1CCN(C(c2ccc3c(c2)OCO3)C2C(=O)N(c3ccccc3)N=C2C)CC1 (stereo not given) | 21.1
1.46 | 0.48 | 81.3 | Cc1c(C(CCCC(c2c(C)n(C)n(-c3ccccc3)c2=O)c2c(C)n(C)n(-c3ccccc3)c2=O)c2c(C)n(-c3ccccc3)n(C)c2=O)c(=O)n(-c2ccccc2)n1C (stereo not given) | 75
> 5 | 1.01 | 58.8 | CC1=NN(c2ccccc2)C(=O)C1C(Nc1c(C)n(C)n(-c2ccccc2)c1=O)c1c(C)n(C)n(-c2ccccc2)c1=O (stereo not given) | 39.4
